Data as given in publication PMC6662757, “A small molecule inhibitor of ER-to-cytosol protein dislocation exhibits anti-dengue and anti-Zika virus activity” (Scientific Reports, 2019).

Tests used:
[1] = target: T1, Derlin2 (Homo sapiens, UniProt Q9GZP9); experiment: cellular thermal shift assay (CETSA), immunoblot; type: cell-based; settings: HeLa cells treated with 10 µM CP26, 37 °C, 2 h, then lysed in 0.4% NP-40 and heated 3 min; direct target within the Hrd1 complex not defined
T1 construct: gene DERL2; endogenous protein in HeLa cells, heated in NP-40 lysate; component of the Hrd1 complex
T1 sequence (Q9GZP9 1-239): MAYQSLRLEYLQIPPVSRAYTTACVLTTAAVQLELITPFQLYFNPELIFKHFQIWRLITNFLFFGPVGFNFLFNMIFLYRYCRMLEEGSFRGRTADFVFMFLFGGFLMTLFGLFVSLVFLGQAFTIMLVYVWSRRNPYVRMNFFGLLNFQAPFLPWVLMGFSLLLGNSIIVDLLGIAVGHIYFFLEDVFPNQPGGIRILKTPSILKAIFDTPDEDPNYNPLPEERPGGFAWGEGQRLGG

[2] = target: T2, OS9 (Homo sapiens, UniProt Q13438); experiment: cellular thermal shift assay (CETSA), immunoblot; type: cell-based; settings: HeLa cells treated with 10 µM CP26, 37 °C, 2 h, then lysed in 0.4% NP-40 and heated 3 min; direct target within the Hrd1 complex not defined
T2 construct: endogenous protein in HeLa cells, heated in NP-40 lysate; component of the Hrd1 complex
T2 sequence (Q13438 26-667): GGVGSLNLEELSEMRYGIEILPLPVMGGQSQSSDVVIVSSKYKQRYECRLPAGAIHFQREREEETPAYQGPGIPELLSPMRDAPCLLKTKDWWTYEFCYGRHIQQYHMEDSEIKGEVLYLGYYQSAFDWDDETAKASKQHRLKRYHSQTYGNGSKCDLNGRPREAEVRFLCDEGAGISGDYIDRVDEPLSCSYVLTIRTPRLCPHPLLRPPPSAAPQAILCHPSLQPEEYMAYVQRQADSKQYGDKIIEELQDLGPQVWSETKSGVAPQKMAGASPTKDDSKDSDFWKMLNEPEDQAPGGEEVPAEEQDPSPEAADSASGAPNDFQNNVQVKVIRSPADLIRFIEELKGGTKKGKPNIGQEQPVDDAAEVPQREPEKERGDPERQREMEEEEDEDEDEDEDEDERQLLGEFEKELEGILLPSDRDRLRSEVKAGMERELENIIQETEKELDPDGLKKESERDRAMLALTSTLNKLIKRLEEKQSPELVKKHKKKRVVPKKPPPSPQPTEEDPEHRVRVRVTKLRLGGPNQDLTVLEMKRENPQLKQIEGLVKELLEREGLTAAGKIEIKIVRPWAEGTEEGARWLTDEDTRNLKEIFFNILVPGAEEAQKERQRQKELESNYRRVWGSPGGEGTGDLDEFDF

Q: With `Cc1ccc(C=C2C(Cl)=C(Cl)C(Cl)=C2Cl)cc1` [CP26, 1-methyl-4-[(2,3,4,5-tetrachlorocyclopenta-2,4-dien-1-ylidene)methyl]benzene] as the compound, how does the thermal stability increase [1] read?
A: CP26 selectively increased the thermal stability of Derlin2 and OS9

Q: And the thermal stability increase [2]?
A: CP26 selectively increased the thermal stability of Derlin2 and OS9
